Columns and labels:
KRAS G12D = KRAS G12D (Homo sapiens (Human), UniProt P01116, G12D); experiment: Inhibitory activity on KRAS G12D nucleotide (GDP-GTP) exchange reaction in vitro (SOS1-dependent, BODIPY FL GDP); format: biochemical; details: BODIPY FL GDP-bound KRAS G12D, compound 25° C. 1 hour, then SOS1 and GMPPNP 30 minutes
Excerpt: Test Example 1: Evaluation of inhibitory activity of compounds on KRAS G12D nucleotide (GDP-GTP) exchange reaction in vitro
Recombinant KRAS G12D (conjugated N-terminus His6-tag, TEV protease cleavage site and KRAS G12D residues 1-169 (SEQ ID NO: 1), prepared by the method described as below) and cleaved recombinant SOS1 (residues 564-1049(SEQ ID NO: 2), prepared by the method as below) proteins were expressed in E. coli and purified by affinity chromatography.
To prepare the recombinant KRAS G12D, the codon-optimized DNA sequence for the recombinant KRAS G12D (conjugated N-terminus His6-tag, TEV protease cleavage site and KRAS G12D residues 1-169 (SEQ ID NO: 3))was synthesized by GeneArt Technology (Life Technologies, Carlsbad, CA, US). The construct was subcloned into the expression vector pET28a and transformed into Escherichia coli BL21 (DE3) strains (Novagen, Madison, WI, US).
The transformed strain was cultivated in 2 L Luria Broth medium with 25 μg/mL kanamycin at a temperature of 37° C. to a density of 0.6 (OD600), then induced for expression with […] IPTG and further cultivated for 4 h. The cell pellet was resuspended in ice-cold lysis buffer containing 50 mM Tris-HCl (pH 7.5), 200 mM NaCl, and 100 μM TCEP (tris(2-carboxyethyl)phosphine).
After sonication, the disrupted debris was removed by centrifugation. The supernatant was applied on to Ni-NTA affinity gels, and the recombinant human KRAS (G12D) eluted fraction was collected. The buffer of the collected fraction was exchanged to the buffer containing 50 mM Tris-HCl (pH 7.5), 200 mM NaCl, 10% Glycerol, and 5 mM DTT by PD-10 column (GE-Healthcare, Chicago, IL, US).
To prepare the cleaved recombinant SOS1, the codon optimized DNA sequences for the recombinant SOS1 (residues 564-1049 with a conjugated N-terminus His6-tag and TEV protease cleavage site (SEQ ID NO: 4)) was synthesized by GeneArt Technology (Life Technologies). The construct was subcloned into the expression vector pET28a and transformed into Escherichia coli BL21 (DE3) strains (Novagen, Madison, WI, USA).
The transformed strain was cultivated in 2 L Terrific Broth medium with 25 μg/mL kanamycin at a temperature of 37° C. to a density of 0.8 (OD600), then shifted to a temperature of 16° C., induced for expression with […] IPTG, and further cultivated for 16 h. The cell pellet was resuspended in ice-cold lysis buffer containing 50 mM Tris-HCl (pH 7.5), 200 mM NaCl, and 100 μM TCEP.
After sonication, the disrupted debris was removed by centrifugation. The supernatant was applied on to Ni-NTA affinity gels, and the recombinant human SOS1 eluted fraction was collected. Then, His6-tagged TEV protease was added to the collected fraction, dialyzed with the ice-cold lysis buffer for 16 h at a temperature of 4° C., and applied on to Ni-NTA affinity gels. The flow-through fraction containing the tag-cleavaged recombinant human SOS1 was collected. The buffer of the collected fraction was exchanged to the buffer containing 50 mM Tris-HCl (pH 7.5), 200 mM NaCl, 10% Glycerol, and 5 mM DTT by PD-10 column (GE-Healthcare).
To prepare BODIPY FL (fluorescent dye) GDP-bound KRAS G12D protein, 50 μM KRAS G12D protein was incubated with 0.5 mM BODIPY FL GDP in a loading buffer (20 mM Tris-HCl (pH 7.5), 50 mM NaCl, 1 mM DTT and 2.5 mM EDTA) for 1 hour on ice. After the incubation, MgCl2 was added to a final concentration of 10 mM, followed by incubation at room temperature for 30 minutes.
The mixture was allowed to pass through a NAP-5 column to remove free nucleotides and purified BODIPY FL GDP-bound KRAS G12D protein was used for compound evaluation.
For the measurement of the inhibitory activity of compounds on GDP-GTP exchange rate of recombinant KRAS G12D, BODIPY FL GDP-bound KRAS G12D protein was incubated with various concentrations of compound in a reaction buffer (20 mM Tris-HCl (pH 7.5), 100 mM NaCl, 1 mM MgCl2, 2 mM DTT, 0.1% Tween 20) at 25° C. for 1 hour. […]

[1] = test system: KRAS-G12D mutant cell line (A-427); experiment: Growth inhibition activity on KRAS-G12D mutant cell line (A-427), CellTiter-Glo 3D; format: cell-based; details: Homo sapiens, 72 h, A-427 cells, 3-day culture with compound, read-out: A427 CTX IC50
Procedure: Test Example 2: A measurement test of growth inhibition activity on KRAS-G12D mutant cell line (A-427) (in vitro) A-427 cells (ATCC, Cat #: HTB-53), which are a KRAS-G12D mutant human lung cancer cell line, were suspended in a 10% fetal bovine serum-containing E-MEM medium (manufactured by Fujifilm Wako Pure Chemical Corporation). The cell suspension was seeded into each well of a 384-well U bottom microplate and cultured in an incubator containing 5% CO2 gas at 37° C. for 1 day.
The compound of the present invention was dissolved in DMSO, and the test compound was diluted with DMSO to give a concentration 500 times the final concentration. The solution of the test compound in DMSO was diluted with the medium used for suspending cells and added to each well of the cell-culture plate to give a DMSO final concentration of 0.2%, followed by culture in an incubator containing 5% CO2 gas at 37° C. for another 3 days. The cell count after a 3-day culture in the presence of the compound was measured using CellTiter-Glo 3D Reagent (manufactured by Promega Corporation).
All wells were added with CellTiter-Glo 3D Reagent and mixed for 10 minutes. 30 minutes after mixing, luminescence was measured by a plate reader. The growth inhibition rate was calculated from the following equation, and the concentration of the test compound at which 50% inhibition was achieved (IC50 (μM)) was determined.
Growth Inhibition Rate(%)=(C−T)/(C)×100
T: the emission intensity in a well into which a test compound was added.
C: the emission intensity in a well into which a test compound was not added.

KRAS G12D, sequence (P01116 other isoform, or with tags, fused parts or gaps G12D (already in the parent)): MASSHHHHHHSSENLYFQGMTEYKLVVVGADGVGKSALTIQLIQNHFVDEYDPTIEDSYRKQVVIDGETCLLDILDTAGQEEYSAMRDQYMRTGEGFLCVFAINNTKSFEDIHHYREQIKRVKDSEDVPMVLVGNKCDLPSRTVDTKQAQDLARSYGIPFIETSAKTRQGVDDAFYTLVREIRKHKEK

SMILES	IC50 (KRAS G12D) [nM]	IC50 [1] [nM]
O=C(c1cc(O)cc2cccc(I)c12)N1Cc2nc(OCC3(CN4CC[C@@H](F)C4)CC3)nc(N3CC4CCC(C3)N4)c2C1 [Example 12, (4-(3,8-diazabicyclo[3.2.1]octan-3-yl)-2-((1-(((R)-3-fluoropyrrolidin-1-yl)methyl)cyclopropyl)methoxy)-5,7-dihydro-6H-pyrrolo[3,4-d]pyrimidin-6-yl) (3-hydroxy-8-iodonaphthalen-1-yl)methanone]	4.4	8150
O=C(c1cc(O)cc2cccc(I)c12)N1Cc2nc(OCC3(CN4CCOCC4)CC3)nc(N3CC4CCC(C3)N4)c2C1 [Example 13, (4-(3,8-diazabicyclo[3.2.1]octan-3-yl)-2-((1-(morpholinomethyl)cyclopropyl)methoxy)-5,7-dihydro-6H-pyrrolo[3,4-d]pyrimidin-6-yl) (3-hydroxy-8-iodonaphthalen-1-yl)methanone]	5.5	8550
CN(C)CC1(COc2nc(N3CC4CCC(C3)N4)c3cc(Cl)c(-c4cc(O)cc5ccccc45)c(F)c3n2)CC1 [Example 14, 4-(4-(3,8-diazabicyclo[3.2.1]octan-3-yl)-6-chloro-2-((1-((dimethylamino)methyl)cyclopropyl)methoxy)-8-fluoroquinazolin-7-yl)naphthalen-2-ol]	8.9	1270
CN(C)CC1(COc2nc(N3CC4CCC(C3)N4)c3ccc(-c4cc(O)cc5ccccc45)c(F)c3n2)CC1 [Example 15, 4-(4-(3,8-diazabicyclo[3.2.1]octan-3-yl)-2-((1-((dimethylamino)methyl)cyclopropyl)methoxy)-8-fluoroquinazolin-7-yl) naphthalen-2-ol]	4.7	1360
CN1CCC[C@H]1COc1nc(N2CC3CCC(C2)N3)c2ccc(-c3cc(O)cc4ccccc34)c(F)c2n1 [Example 16, 4-(4-(3,8-diazabicyclo[3.2.1]octan-3-yl)-8-fluoro-2-(((S)-1-methylpyrrolidin-2-yl)methoxy)quinazolin-7-yl) naphthalen-2-ol]	10.2	2390
CCc1cc2c(N3CC4CCC(C3)N4)nc(OCC3(CN(C)C)CC3)nc2c(F)c1-c1cc(O)cc2ccccc12 [Example 19, 4-(4-(3,8-diazabicyclo[3.2.1]octan-3-yl)-2-((1-((dimethylamino)methyl)cyclopropyl)methoxy)-6-ethyl-8-fluoroquinazolin-7-yl)naphthalen-2-ol]	7.1	1590
CN(C)CC1(COc2nc3c(c(N4C[C@@H]5CC[C@H]4CN5)n2)CCN(c2cc(O)cc4cccc(Br)c24)C3)CC1 [Example 20, 4-(4-((1S,4S)-2,5-diazabicyclo[2.2.2]octan-2-yl)-2-((1-((dimethylamino)methyl)cyclopropyl)methoxy)-5,8-dihydropyrido[3,4-d]pyrimidin-7(6H)-yl)-5-bromonaphthalen-2-ol]	3	1950
CN(C)CC1(COc2nc3c(c(N4CC5CCC(C4)N5)n2)CCN(c2cc(O)cc4cccc(Br)c24)C3)CC1(F)F (stereo not shown) [Example 21, 4-(4-(3,8-diazabicyclo[3.2.1]octan-3-yl)-2-((1-((dimethylamino)methyl)-2,2-difluorocyclopropyl)methoxy)-5,8-dihydropyrido[3,4-d]pyrimidin-7(6H)-yl)-5-bromonaphthalen-2-ol]	9.7	540
CN(C)CC1(COc2nc3c(c(N4CC5CCC(C4)N5)n2)CCN(c2nc(N)cc4cccc(Br)c24)C3)CC1 [Example 22, 1-(4-(3,8-diazabicyclo[3.2.1]octan-3-yl)-2-((1-((dimethylamino)methyl)cyclopropyl)methoxy)-5,8-dihydropyrido[3,4-d]pyrimidin-7 (6H)-yl) -8-bromoisoquinolin-3-amine]	13	4090
C#Cc1cccc2cc(O)cc(C3Cc4nc(OCC5(CN(C)C)CC5)nc(N5CC6CCC(C5)N6)c4CO3)c12 (stereo not shown) [Example 23, 4-(4-(3,8-diazabicyclo[3.2.1]octan-3-yl)-2-((1-((dimethylamino)methyl)cyclopropyl)methoxy)-7,8-dihydro-5H-pyrano[4,3-d]pyrimidin-7-yl)-5-ethynylnaphthalen-2-ol]	3	1470
C#Cc1cccc2cccc(C3CCc4c(nc(OCC5(CN(C)C)CC5)nc4N4CC5CCC(C4)N5)C3)c12 (stereo not shown) [Example 24, 1-(1-(((4-(3,8-diazabicyclo[3.2.1]octan-3-yl)-7-(8-ethynylnaphthalen-1-yl)-5,6,7,8-tetrahydroquinazolin-2-yl)oxy)methyl)cyclopropyl)-N,N-dimethylmethanamine]	17	1220
CN1C[C@H](F)C[C@H]1COc1nc2c(c(N3CC4CCC(C3)N4)n1)CCN(c1cc(O)cc3cccc(Br)c13)C2 [Example 27, 4-(4-(3,8-diazabicyclo[3.2.1]octan-3-yl)-2-(((2S,4R)-4-fluoro-1-methylpyrrolidin-2-yl)methoxy)-5,8-dihydropyrido[3,4-d]pyrimidin-7(6H)-yl)-5-bromonaphthalen-2-ol]	18.5	650
Oc1cc(N2CCc3c(nc(OCC4(CN5CCOCC5)CC4)nc3N3C[C@@H]4CC[C@H]3CN4)C2)c2c(Br)cccc2c1 [Example 28, 4-(4-((1S,4S)-2,5-diazabicyclo[2.2.2]octan-2-yl)-2-((1-(morpholinomethyl)cyclopropyl)methoxy)-5,8-dihydropyrido[3,4-d]pyrimidin-7(6H)-yl)-5-bromonaphthalen-2-ol]	3.6	820
CN(C)CC1(COc2nc3c(c(N4CC5CCC(C4)N5)n2)CCN(c2cccc4cccc(Br)c24)C3)CC1(F)F (stereo not shown) [Example 29, 1-(1-(((4-(3,8-diazabicyclo[3.2.1]octan-3-yl)-7-(8-bromonaphthalen-1-yl)-5,6,7,8-tetrahydropyrido[3,4-d]pyrimidin-2-yl)oxy)methyl)-2,2-difluorocyclopropyl)-N,N-dimethylmethanamine]	37.8	1260

Reference: US20230348495A1, “A COMPOUND HAVING INHIBITORY ACTIVITY AGAINST KRAS G12D MUTATION” (TAIHO PHARMACEUTICAL CO., LTD., priority 2019, published 2023)
